{
  "source": "patent US8163748B2",
  "about": "“s-Triazine compounds, pharmaceutical compositions and method of using the same” (New York University, priority 2007, dated 2012)",
  "data": [
    {"tested_on": "Bacillus subtilis (ATCC 6633)", "experiment": "broth microdilution antibacterial testing", "assay_type": "cell-based", "conditions": "Bacillus subtilis, ATCC6633", "units": {"MIC50": "µM"}, "values": [
      {"molecule": "CCCCN(CCCC)CCCNc1nc(NC2CCC2)nc(NC23CC4CC(CC(C4)C2)C3)n1", "note": "[A2 (Library 5)]", "MIC50": 7.9},
      {"molecule": "CCCCN(CCCC)CCCNc1nc(NC2CCCCCCCCCCC2)nc(NC23CC4CC(CC(C4)C2)C3)n1", "note": "[A5 (Library 5)]", "MIC50": 15.9},
      {"molecule": "CCCCN(CCCC)CCCNc1nc(NC2CC3CCC2C3)nc(NC23CC4CC(CC(C4)C2)C3)n1", "note": "(stereo not drawn) [A6 (Library 5)]", "MIC50": 7.6},
      {"molecule": "CCCCN(CCCC)CCCNc1nc(NC23CC4CC(CC(C4)C2)C3)nc(NC23CC4CC(CC(C4)C2)C3)n1", "note": "[A8 (Library 5)]", "MIC50": 39},
      {"molecule": "CCCCN(CCCC)CCCNc1nc(NC23CC4CC(CC(C4)C2)C3)nc(N(CCC)CC2CC2)n1", "note": "[A10 (Library 5)]", "MIC50": 5},
      {"molecule": "CCN(CC)CCCNc1nc(NCc2ccc3c(c2)OCO3)nc(NC23CC4CC(CC(C4)C2)C3)n1", "note": "[C4 (Library 5)]", "MIC50": 3.5},
      {"molecule": "CCCCN(CCCC)CCCNc1nc(NC2CC2)nc(NC23CC4CC(CC(C4)C2)C3)n1", "note": "[Compound A1]", "MIC50": 16.4},
      {"molecule": "CCCCN(CCCC)CCCNc1nc(NC23CC4CC(CC(C4)C2)C3)nc(N(CCCC)CCCC)n1", "note": "[Compound A9]", "MIC50": 4.4},
      {"molecule": "CCN(CC)CCCNc1nc(NCc2ccccc2)nc(NC23CC4CC(CC(C4)C2)C3)n1", "note": "[Compound C1]", "MIC50": 10.6},
      {"molecule": "CN(C)CCNc1nc(NC2CCCCCC2)nc(NC23CC4CC(CC(C4)C2)C3)n1", "note": "[b9 (Library 5)]", "MIC50": 7},
      {"molecule": "CCN(CC)CCNc1nc(NC2CCCCCC2)nc(NC23CC4CC(CC(C4)C2)C3)n1", "note": "[c9 (Library 5)]", "MIC50": 5.6},
      {"molecule": "CN(C)CCCNc1nc(NC2CCCCCC2)nc(NC23CC4CC(CC(C4)C2)C3)n1", "note": "[d9 (Library 5)]", "MIC50": 5.7},
      {"molecule": "NCCNc1nc(NC2CCCCCC2)nc(NC23CC4CC(CC(C4)C2)C3)n1", "note": "[e9 (Library 5)]", "MIC50": 5.9},
      {"molecule": "NCCCNc1nc(NC2CCCCCC2)nc(NC23CC4CC(CC(C4)C2)C3)n1", "note": "[f9 (Library 5)]", "MIC50": 4.7},
      {"molecule": "CN1CCCC1CCNc1nc(NC2CCCCCC2)nc(NC23CC4CC(CC(C4)C2)C3)n1", "note": "(stereo not drawn) [g9 (Library 5)]", "MIC50": 5.9}
    ]},
    {"tested_on": "Bacillus subtilis (ATCC 6633)", "experiment": "broth microdilution antibacterial testing", "assay_type": "cell-based", "conditions": "library 5; ring size 12; B. subtilis", "units": {"activity decrease comparing to ring size 7 or 8 compounds": "fold"}, "values": [
      {"molecule": "CCCCN(CCCC)CCCNc1nc(NC2CCCCCCCCCCC2)nc(NC23CC4CC(CC(C4)C2)C3)n1", "note": "[A5 (Library 5)]", "activity decrease comparing to ring size 7 or 8 compounds": "~8"}
    ]},
    {"tested_on": "Bacillus subtilis (ATCC 6633)", "experiment": "broth microdilution antibacterial testing", "assay_type": "cell-based", "conditions": "library 5 compound used as control in dye leakage", "values": [
      {"molecule": "CN(C)c1nc(NC2CCCCCC2)nc(NC23CC4CC(CC(C4)C2)C3)n1", "note": "[h9 (Library 5)]", "antimicrobial activity (in words)": "little antimicrobial activity"}
    ]},
    {"tested_on": "not listed separately", "experiment": "calcein dye leakage", "assay_type": "biochemical", "conditions": "ampicillin 70 μM", "description": "FIG. 1 graphically depicts the results of the measurement of the ability of a triazine compound of the invention to induce leakage of calcein, entrapped within the interior of large unilamellar vesicles of model membrane POPG. The extent of leakage of encapsulated calcein was detected by its fluorescence at 515 nm, with 100% leakage calibrated by addition of 0.2% Triton X-100.\nThe method of preparation of dye-encapsulated vesicles has been reported in detail. Lasch, V.; Weissig, M. Brandl in Liposomes: a Practical Approach Eds.: Taylor, K. M. G.; Craig, D.Q.M. Oxford University Press, Oxford, 2003; pp. 10-12. The results are graphically presented in FIG. 1, which presents the results of calcein leakage induced by 1% Triton, C2 (50 μM), h9 (90 μM) and ampicillin (70 μM). The fraction of leakage was calculated from the fluorescence intensity at 515 nm, with 100% leakage calibrated by addition of 1% Triton X-100.", "values": [
      {"molecule": "CC1(C)S[C@@H]2[C@H](NC(=O)[C@H](N)c3ccccc3)C(=O)N2[C@H]1C(=O)O", "note": "[ampicillin]", "calcein dye leakage (in words)": "neither ampicillin nor compound C2 caused dye leakage"}
    ]}
  ]
}
